Results as given in EP0810245A1, “Catalyst for low temperature cure of blocked isocyanates” (ELF ATOCHEM NORTH AMERICA, INC., priority 1996, dated 1997).

Columns and labels:
[1] = Gel time by Brookfield viscosity (time to 2500 cps), masterbatch of Examples 1-8 and A-J; set-up: key to Gel Time @250F (120C): minutes to reach target viscosity (gel time); GEL TIME @ 130°C: unit: min; conditions: for GEL TIME @ 130°C: 0.16%Sn, time to reach 2500 cps (gel times in mins)
Protocol: (§1) Solids content was maintained between 50-60%.
(§2) Comparison of catalyst activity was determined by monitoring viscosity as a function of cure time. A Brookfield viscometer fitted with a heated cell was connected to a strip chart recorder. A 10 gram aliquot of the formulation with the desired catalyst was placed in the chamber and rapidly heated to the test temperature. A #27 speed spindle was immersed into the solution and the initial viscosity measured. The rate of increase in viscosity was monitored until a viscosity of 2500 cps was achieved. In almost all the examples the formulation gelled at this viscosity. The time required to reach this viscosity was termed "gel time" at the test temperature. This technique provides information on the time required to reach a target viscosity and on the rate of increase in viscosity for a given system and compares the relative reactivity of different catalysts in a specific formulation at the same temperature. Variability in gel time is +/- 0.5-1.0 mins and is limited by the accuracy of weighing of the catalyst. […] Gel time measurements were then correlated with film properties.
The components were stirred to ensure complete solubility, usually from 2 to 4 hours. • Desmophen A565 (215g, 42.9 wt%) • Desmodur BL 3175 A (140g, 27.9 wt%) • methyl amyl ketone (58.5g, 11.7 wt%) • methy isobutyl ketone (58.5g, 11.7 wt%) • propylene glycol methyl ether acetate (29.0g, 5.8 wt%)
(§3) For each evaluation, a 10g aliquot of this master batch was removed and the appropriate catalyst added.

[2] = Gel time by Brookfield viscosity (time to 2500 cps), masterbatch of Examples 9-12 and K, Zn salts as co-catalysts; conditions: 0.16 %Sn, co-catalyst 0.07 %Zn where used
Protocol: as §1, §2
In comparative example K and operative examples 9 to 12 a masterbatch of the following mixture was prepared. The components were stirred to ensure complete solubility, usually from 2 to 4 hours. • Desmophen A565 215g • Desmodur BL 3175 A 140g • Methyl isobutyl ketone 146.4g
as §3

Row | Molecule | Gel Time @266F (130C) ([1]; 0.16 %Sn) [min] | GEL TIME @ 130°C [1] | Gel Time @250F (120C) ([1]; 0.20 %Sn) | Gel Time @ 120°C [2] [min] | Gel Time @ 125°C [2] [min] | Gel Time @250F (120C) ([1]; 0.16 %Sn) | Gel Time @266F (130C) ([1]; 0.20 %Sn) [min]
1 | CCC[CH2][Sn](=[O])[CH2]CCC [C, Dibutyl Sn Oxide, reference compound] | 23.2 | 23.2 |  |  |  |  | 
2 | CCCCCCCCCCCC(=O)[O][Sn]([CH2]CCC)([CH2]CCC)[O]C(=O)CCCCCCCCCCC [A, Dibutyl Sn Dilaurate, reference compound] |  | 22.2 | 48.7 | 45 | 29 |  | 
3 | CCC[CH2][Sn]([CH2]CCC)([O]C(C)=O)[O]C(C)=O [B, Dibutyl Sn Diacetate, reference compound] | 21.3 | 21.2 |  |  |  | 45 | 
4 | CCC[CH2][Sn]([CH2]CCC)([O]C(C)=O)[O][Sn]([CH2]CCC)([CH2]CCC)[O]C(C)=O [D, Dibutyl Diacetoxy Stannox n=0, reference compound] | 18.6 | 18.6 |  |  |  | 38 | 
5 | Dibutyl Diformyloxy Stannox (n=6) [Example 5] |  |  | 25.6 |  |  |  | 
6 | Dibutyl Diformyloxy Stannox (n=3) [Example 4] |  |  | 27.5 |  |  |  | 15.9
7 | Dibutyl Diformyloxy Stannox (n=14) [Example 6] |  |  | 24.1 | 29 | 19 |  | 14.4
8 | Dibutyl Diacetoxy Stannox n=3 [Example 1] | 17.2 | 17.2 |  |  |  | 36.1 | 
9 | Dibutyl Di Octylmaleate Stannox n=6 [Example 3] |  | 20.4 |  |  |  |  | 
10 | Dibutyl Diacetoxy Stannox n=6 [Example 2] | 16.5 | 16.4 |  |  |  | 32.5 | 
